From patent US7935853B2, “Micronized composition of a 2,4-disubstituted phenol derivative” (priority 2008, dated 2011)

System: arthritis induced by injection of type II collagen in the mouse
Assay: Model of arthritis induced by type II collagen in mice (CIA), hind paw plethysmometry
Format: in vivo
Settings: for Total hind paw volume (sum of both hind paws) / Oedema (difference in paw volume from basal values on day 21) in both hind paws: group mean n=10, listed as Group E; for percentage inhibition of oedema versus the control group: 10 mg/kg BID
Protocol: The aim of the study was to determine the anti-inflammatory activity of the test item in a model of arthritis induced by injection of type II collagen in the mouse (CIA) and to compare the activity of two different formulations: micronized and non-micronized.
Induction of arthritis was carried out by an initial exposure to type II bovine collagen by a subcutaneous injection at the base of the tail (induction phase).
After a recovery time of 21 days, animals received a booster injection and approximately 4-5 weeks after the first injection there was an immune response with arthritis appearing in the extremities in the majority of the cases.
Four experimental groups were used in the study with 10 animals in each group:
Group D: Positive control: FCA+vehicle B.I.D.
Group E: Micronized Test Item (Micro) 10 mg/kg B.I.D.
Group F: Non-Micronized test item 10 mg/kg B.I.D.
Group G: Reference item: Indomethacin 1 mg/kg Q.D.
The dose administered to groups E and F was 10 mg/kg.
The dose administered to group G was 1 mg/kg.
The doses of the test and reference items were expressed as mg/Kg of compound administered to each animal.
The test and reference items were administered in a solution of methylcellulose (0.25%: vehicle).
The positive control group received the vehicle (methylcellulose 0.25%).
The test and reference items, as well as the vehicle were administered orally at a dosing volume of 5 mls/kg.
The route of administration used was oral by use of an intragastric cannula.
On the day of start of the study each mouse was injected subcutaneously at the base of the tail with a first dose of 0.1 ml of an emulsion of bovine type II collagen (1 mg/mL) in Freund's Complete Adjuvant. Afterwards, on day 21 after this first injection, a second booster injection of type II collagen was administered to all animals. In this occasion the collagen suspension was done using Incomplete Freund's Adjuvant.
Coinciding with the second booster injection on day 21 treatment with the test or reference items was started to the corresponding animals.
Treatment with the test or reference items was carried out for 31 consecutive days (days 21-51 of the experimental period). Additionally, a recovery period was included at the end of the treatment period from day 52 to day 65 in order to evaluate the duration of any anti-inflammatory effect observed once dosing has been terminated.
The animals' hind paw volume was measured by plethysmometry one day before the 1st injection of collagen, again one day before the second (booster) collagen injection (basal values) and then daily after administration of test/reference item until the end of the study. During the recovery period at the end of the study, hind paw volume was measured three times per week.
Additionally the data was also represented graphically, depicting changes in total hind paw volume, as well as oedema (differences from basal (day 21) values).

[1] = day 22, oral treatment days 21-51
[2] = day 23, oral treatment days 21-51
[3] = day 26, oral treatment days 21-51
[4] = day 27, oral treatment days 21-51
[5] = day 29, oral treatment days 21-51
[6] = day 30, oral treatment days 21-51
[7] = day 33, oral treatment days 21-51
[8] = day 34, oral treatment days 21-51
[9] = day 35, oral treatment days 21-51
[10] = day 36, oral treatment days 21-51
[11] = day 37, oral treatment days 21-51
[12] = day 40, oral treatment days 21-51
[13] = day 41, oral treatment days 21-51
[14] = day 42, oral treatment days 21-51
[15] = day 43, oral treatment days 21-51
[16] = day 44, oral treatment days 21-51
[17] = day 47, oral treatment days 21-51
[18] = day 48, oral treatment days 21-51
[19] = day 49, oral treatment days 21-51
[20] = day 50, oral treatment days 21-51
[21] = day 51, oral treatment days 21-51
[22] = day 54, recovery period after treatment days 21-51
[23] = day 56, recovery period after treatment days 21-51
[24] = day 58, recovery period after treatment days 21-51
[25] = day 61, recovery period after treatment days 21-51
[26] = day 63, recovery period after treatment days 21-51
[27] = day 65, recovery period after treatment days 21-51

In the case of `Oc1c(I)cc(I)cc1I` [Micronized, 2,4,6-triiodophenol], the “Total hind paw volume (sum of both hind paws)” value (“Total hind paw volume” below) (day 0, before collagen and treatment) is reported as 0.169, the “Total hind paw volume” value (day 20, basal, before treatment) is reported as 0.238 and the “Oedema (difference in paw volume from basal values on day 21) in both hind paws” value [1] is reported as 0.006. The “Total hind paw volume” value [1] was 0.244, the “Oedema (difference in paw volume from basal values on day 21) in both hind paws” value [2] was −0.010 and the “Total hind paw volume” value [2] was 0.228. The “Oedema (difference in paw volume from basal values on day 21) in both hind paws” value [3] was 0.014, the “Total hind paw volume” value [3] was 0.252 and the “Oedema (difference in paw volume from basal values on day 21) in both hind paws” value [4] was −0.007. For the same molecule, the “Total hind paw volume” value [4] was 0.231, the “Oedema (difference in paw volume from basal values on day 21) in both hind paws” value [5] was −0.003 and the “Total hind paw volume” value [5] was 0.234. The “Oedema (difference in paw volume from basal values on day 21) in both hind paws” value [6] was −0.001, the “Total hind paw volume” value [6] was 0.237 and the “Oedema (difference in paw volume from basal values on day 21) in both hind paws” value [7] was −0.007. The “Total hind paw volume” value [7] was 0.231, the “Oedema (difference in paw volume from basal values on day 21) in both hind paws” value [8] was −0.010 and the “Total hind paw volume” value [8] was 0.228. For the same molecule, the “Oedema (difference in paw volume from basal values on day 21) in both hind paws” value [9] was 0.012, the “Total hind paw volume” value [9] was 0.250 and the “Oedema (difference in paw volume from basal values on day 21) in both hind paws” value [10] was 0.006. For the same molecule, the “Total hind paw volume” value [10] was 0.244, the “Oedema (difference in paw volume from basal values on day 21) in both hind paws” value [11] was 0.001 and the “Total hind paw volume” value [11] was 0.239. For the same molecule, the “Oedema (difference in paw volume from basal values on day 21) in both hind paws” value [12] was 0.026, the “Total hind paw volume” value [12] was 0.263 and the “Oedema (difference in paw volume from basal values on day 21) in both hind paws” value [13] was 0.018. The “Total hind paw volume” value [13] was 0.256, the “Oedema (difference in paw volume from basal values on day 21) in both hind paws” value [14] was 0.003 and the “Total hind paw volume” value [14] was 0.241. For the same molecule, the “Oedema (difference in paw volume from basal values on day 21) in both hind paws” value [15] was 0.006, the “Total hind paw volume” value [15] was 0.244 and the “Oedema (difference in paw volume from basal values on day 21) in both hind paws” value [16] was 0.001. The “Total hind paw volume” value [16] was 0.238, the “Oedema (difference in paw volume from basal values on day 21) in both hind paws” value [17] was 0.016 and the “Total hind paw volume” value [17] was 0.254. The “percentage inhibition of oedema versus the control group” value (shortened to “percentage inhibition”) (day 48, P<0.05) was 68.72±8.98%, the “Oedema (difference in paw volume from basal values on day 21) in both hind paws” value [18] was 0.016 and the “Total hind paw volume” value [18] was 0.254. The “Oedema (difference in paw volume from basal values on day 21) in both hind paws” value [19] was 0.023, the “Total hind paw volume” value [19] was 0.261 and the “percentage inhibition” value (day 50, P<0.05) was 70.56±9.88%. The “Oedema (difference in paw volume from basal values on day 21) in both hind paws” value [20] was 0.017, the “Total hind paw volume” value [20] was 0.255 and the “percentage inhibition” value (day 51, highly significant) was 77.59±9.08%. For the same molecule, the “Oedema (difference in paw volume from basal values on day 21) in both hind paws” value [21] was 0.013, the “Total hind paw volume” value [21] was 0.251 and the “Oedema (difference in paw volume from basal values on day 21) in both hind paws” value [22] was 0.032. For the same molecule, the “Total hind paw volume” value [22] was 0.270, the “Oedema (difference in paw volume from basal values on day 21) in both hind paws” value [23] was 0.022 and the “Total hind paw volume” value [23] was 0.259. For the same molecule, the “percentage inhibition” value (day 56, P<0.05) was 71.49±7.19%, the “Oedema (difference in paw volume from basal values on day 21) in both hind paws” value [24] was 0.030 and the “Total hind paw volume” value [24] was 0.268. The “percentage inhibition” value (day 58, P<0.05) was 66.29±5.13%, the “Oedema (difference in paw volume from basal values on day 21) in both hind paws” value [25] was 0.030 and the “Total hind paw volume” value [25] was 0.27. For the same molecule, the “Oedema (difference in paw volume from basal values on day 21) in both hind paws” value [26] was 0.026, the “Total hind paw volume” value [26] was 0.26 and the “Oedema (difference in paw volume from basal values on day 21) in both hind paws” value [27] was 0.029. For the same molecule, the “Total hind paw volume” value [27] was 0.27 and the “percentage inhibition” value (day 65, P<0.05) was 64.95±7.58%.
